Source: patent US9212177B2, “Antiviral compounds and methods of making and using thereof” (Versitech Limited, priority 2009, dated 2015)
Like-named read-outs stand apart in the source and are kept apart here.

Assays:
[1] = MTT cytotoxicity assay in MDCK cells; assay type: cell-based, canine; conditions: dog, MDCK cells, 24 hours incubation, concentrations tested 0 to 250 μM, read-out: TC50 in MDCK cells
Description: (§1) Cytotoxicity of Compounds 1-10 was measured by the 3-(4,5-dimethylthiazol-2-yl)-2,5-diphenyltetrazolium bromide (MTT, Sigma-Aldrich, USA) assay. The assay was performed by seeding Vero cells or MDCK cells at 20,000 cells/well in a total volume of 100 μl EMEM with 10% FBS in flat bottomed 96-well microtitre plates. After 24 hours of incubation, cells were washed twice with PBS and then replenished with fresh EMEM before the addition of the compounds. After the addition of the compounds, the cells were further incubated at 37° C. with 5% CO2 for 24 hours. MTT was added to each well to a final concentration of 0.5 mg/ml. The plates were further incubated at 37° C. with 5% CO2 for 4 hours. At the end of the incubation period, 100 μl of 10% of lauryl sulfate (SDS) in 0.01M of hydrochloric acid (HCl) was added to each well to solubilize the cells. After overnight incubation, the plates were read at 570 nm with 640 nm as the reference wavelength. The median toxic concentration, TC50, which represents the concentration of a compound required to reduce the MTT reading by 50%, was estimated from the MTT data.

[2] = MTT cytotoxicity assay in Vero cells; assay type: cell-based; conditions: African green monkey, Vero cells, 24 hours incubation, concentrations tested 0 to 250 μM, read-out: TC50 in Vero cells
Description: as §1

Influenza A H1N1\WSN\33 = test: microbe, parasite or virus in culture; assay type: cell-based, Influenza A virus; conditions: for EC50: read-out: EC50 by PRA
MDCK cells = test: MTT cytotoxicity assay in MDCK cells; assay type: cell-based, canine; conditions: 24 hours incubation, concentrations tested 0 to 250 μM, read-out: TC50 in MDCK cells
Description: as §1

Vero cells = test: MTT cytotoxicity assay in Vero cells; assay type: cell-based; conditions: 24 hours incubation, concentrations tested 0 to 250 μM, read-out: TC50 in Vero cells
Description: as §1

For `Cc1onc(-c2ccccc2)c1C(=O)N1CCN(c2ccc([N+](=O)[O-])cc2Cl)CC1` [Compound 2, [4-(2-chloro-4-nitro-phenyl)-piperazin-1-yl]-[3-phenyl-5-methyl-isoxazol-4-yl]-methanone], the CC50 at 24 h [1] was greater than 250 µM, the CC50 at 24 h [2] was greater than 250 µM and the “Selective Index (SI)” value (Influenza A H1N1\WSN\33) was greater than 4167. The EC50 (Influenza A H1N1\WSN\33; Influenza A virus, MDCK, 72 h) was 60 nM.

Compound `Cc1onc(-c2ccccc2Cl)c1C(=O)N1CCN(c2ccc([N+](=O)[O-])cc2Cl)CC1` [Compound 5, [4-(2-chloro-4-nitro-pheny1)-piperazin-1-yl]-[3-(2-chloro-phenyl)-5-methylisoxazol-4-yl]-methanone] has a CC50 (MDCK cells) greater than 250 µM, a CC50 (Vero cells) greater than 250 µM and an EC50 (Influenza A H1N1\WSN\33) of 40 nM.

With `Cc1onc(-c2ccccc2Cl)c1C(=O)N1CCN(c2c(Cl)cccc2[N+](=O)[O-])CC1` [Compound 10, [4-(2-nitro-6-chloro-phenyl)-piperazin-1-yl]-[3-(2-chloro-phenyl)-5-methyl-isoxazol-4-yl]-methanone] the CC50 at 24 h [1] was greater than 250 µM, the CC50 at 24 h [2] was greater than 250 µM and the “Selective Index (SI)” value (Influenza A H1N1\WSN\33) was greater than 10. The EC50 (Influenza A H1N1\WSN\33; Influenza A virus, MDCK, 72 h) was 25000 nM.

With `Cc1onc(-c2c(Cl)cccc2Cl)c1C(=O)N1CCN(c2ccc([N+](=O)[O-])cc2)CC1` [Compound 9, [4-(4-nitro-phenyl)-piperazin-1-yl]-[3-(2,6-dichloro-phenyl)-5-methyl-isoxazol-4-yl]-methanone] the CC50 at 24 h [1] was greater than 250 µM, the CC50 at 24 h [2] was greater than 250 µM and the “Selective Index (SI)” value (Influenza A H1N1\WSN\33) was greater than 21. For the same compound, the EC50 (Influenza A H1N1\WSN\33; Influenza A virus, MDCK, 72 h) was 12000 nM.

Compound `Cc1onc(-c2ccc(N=[N+]=[N-])cc2)c1C(=O)N1CCN(c2ccc([N+](=O)[O-])cc2Cl)CC1` [Compound 4, [4-(2-chloro-4-nitro-pheny1)-piperazin-1-yl]-[3-(4-azido-pheny1)-5-methylisoxazol-4-yl]-methanone] has a CC50 (MDCK cells) greater than 250 µM, a CC50 (Vero cells) greater than 250 µM and an EC50 (Influenza A H1N1\WSN\33) of 250 nM.

In the case of `Cc1onc(-c2ccccc2Cl)c1C(=O)N1CCN(c2ccc([N+](=O)[O-])cc2Cl)CC1C` (centres unmarked) [Compound 6, [4-(2-chloro-4-nitro-phenyl)-2-methyl-piperazin-1-yl]-[3-(2-chloro-phenyl)-5-methyl-isoxazol-4-yl]-methanone], the CC50 at 24 h [1] is reported as greater than 250 µM, the CC50 at 24 h [2] is reported as greater than 250 µM and the “Selective Index (SI)” value (Influenza A H1N1\WSN\33) is reported as greater than 1190. It also gave an EC50 (Influenza A H1N1\WSN\33; Influenza A virus, MDCK, 72 h) of 210 nM.

For `Cc1onc(-c2ccc(N)cc2)c1C(=O)N1CCN(c2ccc([N+](=O)[O-])cc2Cl)CC1` [Compound 3, [4-(2-chloro-4-nitro-phenyl)-piperazin-1-yl]-[3-(4-amino-phenyl)-methylisoxazol-4-yl]-methanone], the CC50 at 24 h [1] was greater than 250 µM, the CC50 at 24 h [2] was greater than 250 µM and the “Selective Index (SI)” value (Influenza A H1N1\WSN\33) was greater than 4464.

In the case of `Cc1onc(-c2ccc(O)cc2)c1C(=O)N1CCN(c2ccc([N+](=O)[O-])cc2Cl)CC1` [Compound 1, [4-(2-chloro-4-nitro-pheny1)-piperazin-1-yl]-[3-(4-hydroxy-pheny1)-5-methylisoxazol-4-yl]-methanone], the CC50 (MDCK cells) is reported as greater than 250 µM, the CC50 (Vero cells) is reported as greater than 250 µM and the EC50 (Influenza A H1N1\WSN\33) is reported as 50 nM.

In the case of `Cc1onc(-c2ccccc2)c1C(=O)N1CCN(c2ccc([N+](=O)[O-])cc2Cl)CC1C` (centres unmarked) [Compound 7, [4-(2-chloro-4-nitro-phenyl)-2-methyl-piperazin-1-yl]-[3-phenyl-5-methylisoxazol-4-yl]-methanone], the CC50 at 24 h [1] is reported as greater than 250 µM, the CC50 at 24 h [2] is reported as greater than 250 µM and the “Selective Index (SI)” value (Influenza A H1N1\WSN\33) is reported as greater than 313. The EC50 (Influenza A H1N1\WSN\33; Influenza A virus, MDCK, 72 h) was 800 nM.

Compound `Cc1onc(-c2ccccc2Cl)c1C(=O)N1CCN(c2ccc([N+](=O)[O-])cc2)CC1` [Compound 8, [4-(4-nitro-pheny1)-piperazin-1-yl]-[3-(2-chloro-phenyl)-5-methyl-isoxazol-4-yl]-methanone] has a CC50 (MDCK cells) greater than 250 µM, a CC50 (Vero cells) greater than 250 µM and an EC50 (Influenza A H1N1\WSN\33) of 5100 nM.
